# Data from PubChem BioAssay (NCI).
#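 All cell lines were grown in 96-well plates and treated with compound for 48 hours. GI50 is the concentration that inhibits growth by half. TGI is the concentration that stops growth completely.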
# Legend:
# Experiment in all cases: NCI-60 cell line screen, 48 h
# [1] = system: OVCAR-3 ovarian
# [2] = system: M14 melanoma
# [3] = system: HL-60(TB) leukemia
# [4] = system: MALME-3M melanoma
# [5] = system: HT29 colon
# [6] = system: DU-145 prostate
# [7] = system: OVCAR-4 ovarian
# [8] = system: SF-539 CNS
# [9] = system: SK-MEL-5 melanoma
# [10] = system: UO-31 renal
SMILES,GI50 [1] [µM],TGI [1] [µM],GI50 [2] [µM],TGI [2] [µM],GI50 [3] [µM],TGI [3] [µM],GI50 [4] [µM],TGI [4] [µM],GI50 [5] [µM],TGI [5] [µM],GI50 [6] [µM],TGI [6] [µM],GI50 [7] [µM],TGI [7] [µM],GI50 [8] [µM],TGI [8] [µM],GI50 [9] [µM],TGI [9] [µM],GI50 [10] [µM],TGI [10] [µM]
CN(C)c1ccc(/C=N/NC(=O)c2cccc3ccccc23)c(Cl)c1,0.865,13.5,0.763,> 100,0.46,3.64,1.29,69.2,0.503,15.8,4.07,> 100,11.6,74.2,1.73,26.1,0.922,24.1,14.6,> 100
COc1ccc2nccc(/C=C/c3ccnc4ccc(OC)cc34)c2c1,> 92,> 100,> 42,> 56,> 50.8,> 86.5,22.1,48.1,> 69.9,> 100,> 42.4,> 63.4,21.7,> 52.5,> 93.1,> 100,> 71.4,> 100,> 100,> 100
FC(F)(F)c1[nH]ncc1-c1nc2ccc3[nH]ncc3c2c2c1CCCC2,2.66,6.86,1.09,2.9,2.09,6.22,0.927,3.82,2.11,6.76,1.58,10.9,2.82,11.4,1.2,2.83,1.55,2.96,1.3,5
CC(OC(=O)N(N(CCCl)S(C)(=O)=O)S(C)(=O)=O)c1ccc([N+](=O)[O-])cc1 (stereo not given),42.5,> 100,49.4,> 100,40.1,> 100,41.5,> 100,65,> 100,24,> 100,73.5,> 100,3.42,> 47.5,16.1,44.7,> 100,> 100
CCN1C(=O)N(CC)C2C1NN=c1s/c(=C\c3cccc([N+](=O)[O-])c3)c(=O)n12 (stereo not given),0.0575,0.399,0.0533,> 100,0.0496,0.21,0.0812,> 100,0.0387,> 100,0.101,> 100,0.567,> 100,0.0397,0.396,0.0511,1.17,0.321,> 100
NC(CO)C(=O)NCC(=O)O (stereo not given),–,> 100,–,> 100,–,> 100,–,> 100,–,> 100,–,> 100,–,> 100,–,> 100,–,> 100,–,> 100
CC(=O)/C(=C\c1c(-c2ccccc2)[nH]c2ccccc12)S(=O)(=O)c1ccccc1,1.54,4.52,0.513,2.15,1.69,5.28,1.98,9.19,0.576,2.32,2.94,9.31,3.53,> 54.2,1.31,3.08,0.78,2.21,1.58,3.54
CN(C)c1ccc(C(=C2C=CC(=[N+](C)C)C=C2)c2ccccc2Cl)cc1,0.261,0.699,0.274,0.942,0.277,3.84,0.266,1.05,0.167,1.03,0.374,1.31,0.36,1.6,0.259,0.951,0.301,1.05,0.762,6.49
